US20100216827A1 (Metabolex, Inc., priority 2008, published 2010)
Where two headings read alike, the source gives them in different places.

Biological target: T1, human GPR120 (Homo sapiens, UniProt Q5NUL3)
T1 construct: host or cells: HEK293 cells coexpressing Gqi5
T1 sequence (Q5NUL3 1-361): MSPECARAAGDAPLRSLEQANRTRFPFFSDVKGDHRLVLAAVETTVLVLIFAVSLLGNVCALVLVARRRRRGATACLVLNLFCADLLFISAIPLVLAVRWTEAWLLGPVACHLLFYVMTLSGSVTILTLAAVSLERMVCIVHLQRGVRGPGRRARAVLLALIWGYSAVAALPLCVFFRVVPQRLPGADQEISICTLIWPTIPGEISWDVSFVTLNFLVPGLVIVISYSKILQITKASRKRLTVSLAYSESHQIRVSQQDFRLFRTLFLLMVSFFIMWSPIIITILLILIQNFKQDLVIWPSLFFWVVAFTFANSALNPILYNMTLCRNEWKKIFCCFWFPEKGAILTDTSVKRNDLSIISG
Experiment: Intracellular Ca2+ (FLIPR Calcium 4, Flexstation) assay in human GPR120 stable HEK293 cell line coexpressing Gqi5
Format: cell-based
Conditions: for % Activity at 5 μM: 5 μM compound compared to the maximal activity of GW9508 at 6.7 μM (100%); for EC50: human GPR120 stably expressing cells, 8 concentrations 0.00001 to 20 μM
Protocol: Human GPR120 stable cell line was purchased from Multispan Inc (26219 Eden Landing Road, Hayward, Calif. 94545). This GPR120 cell line was generated in HEK293 cells coexpressing Gqi5. In this cell line, the Flag epitope tag (DYKDDDDK) was fused to the amino terminus of human GPR120 protein.
The concentration of intracellular Ca^2+ was measured as described below. Human GPR120 cells were plated in 96 well plates (Poly-D-Lysine coated black/clear Plate, Greiner Bio-One) at 70,000 cells per well and cultured overnight in conditions of 37° C. and 5% CO2. A Ca^2+ assay dye stock solution was prepared by adding 10 mL of assay buffer (HBSS/20 mM HEPES, pH 7.4) to FLIPR Calcium 4 Assay Bulk Kit (Molecular Devices). The 10 mL of Ca^2+ assay dye solution was prepared by further diluting 0.5 mL of Ca^2+ assay dye stock solution with 10 mL of assay buffer. The medium of the cells was removed and immediately 100 μl of the Ca^2+ assay dye solution was dispensed into each well followed by incubation at 37° C. and 5% CO2 for 50 minutes to incorporate the Ca^2+ dye into the cells. The cell plate was then placed in the Flexstation (Molecular Devices) for 20 minutes at 37° C. Compounds were dissolved in 100% DMSO and diluted to desired concentrations with assay buffer and placed in Flexstation simultaneously with the cell plate for 20 minute incubation at 37° C. prior to reading. Fluorescence intensity was measured immediately following compound addition (25 μl/well) on the Flexstation at an excitation wavelength of 485 nm and an emission wavelength of 525 with 515 nm auto cutoff. The resulting increase in fluorescence intensities corresponds to increases in intracellular Ca^2+ levels.
Compounds were dissolved in 100% DMSO to a concentration of 20 mM to provide stock solutions. To determine activity against human GPR120, compounds were added with human GPR120 stably expressing cells (described above), at 8 desired concentrations ranging from 0.00001 to 20 μM, in 96 well plates and fluorescence intensities were measured for 90 seconds with 2-second intervals. An EC50 value (concentration of the GPR120 agonist where 50% of the agonist's maximal activity is observed) was calculated using the changes (Max-Min) of fluorescent intensity.
To determine percent activity for a tested compound, the fluorescence intensity value obtained at a particular concentration were compared to the maximal fluorescence intensity value obtained for reference compound GW9508 (4-[[(3-phenoxyphenyl)methyl]amino]benzene propanoic acid; British Journal of Pharmacology 2006 148, 619-628) that acts as a full agonist of the GPR120 receptor. The maximal activity of GW9508 is designated as 100% activity. Typically, the GW9508 activity reached a maximum at a concentration of approximately 6.7 μM. Activities of compounds that were tested according to this method are shown in Table 1 below and are expressed as % activity at 5 μM compound compared to the maximal activity of GW9508 at 6.7 μM.

[1] = read-out: EC50 between >1 μM and ≦10 μM

Row | % Activity at 5 μM [%] | EC50 (read-out: EC50 ≦ 1 μM) [µM] | EC50 [1] [µM] | Compound
1 | 97 | ≤ 1 |  | COc1ccc(-c2noc(C)c2COc2c(F)cc(CCC(=O)O)cc2F)cc1 [Example 21, 3-(3,5-difluoro-4-((3-(4-methoxyphenyl)-5-methylisoxazol-4-yl)methoxy)phenyl)propanoic acid]
2 | 75 |  | 1 to 10 | Cc1onc(-c2c(Cl)cccc2Cl)c1COc1c(F)cc(CCC(=O)O)cc1F [Example 22, 3-(4-((3-(2,6-dichlorophenyl)-5-methylisoxazol-4-yl)methoxy)-3,5-difluorophenyl)propanoic acid]
3 | 63 |  | 1 to 10 | Cc1noc(C)c1COc1c(F)cc(CCC(=O)O)cc1F [Example 23, 3-(4-((3,5-dimethylisoxazol-4-yl)methoxy)-3,5-difluorophenyl)propanoic acid]
4 | 92 | ≤ 1 |  | Cc1onc(-c2ccc(Cl)cc2)c1COc1c(F)cc(CCC(=O)O)cc1F [Example 24, 3-(4-((3-(4-chlorophenyl)-5-methylisoxazol-4-yl)methoxy)-3,5-difluorophenyl)propanoic acid]
5 | 92 |  | 1 to 10 | Cc1cc(COc2c(F)cc(CCC(=O)O)cc2F)n(C(C)C)n1 [Example 25, 3-(3,5-difluoro-4-((1-isopropyl-3-methyl-1H-pyrazol-5-yl)methoxy)phenyl)propanoic acid]
6 | 100 | ≤ 1 |  | Cc1onc(-c2ccccc2)c1C(=O)COc1c(F)cc(CCC(=O)O)cc1F [Example 26, 3-(3,5-difluoro-4-(2-(5-methyl-3-phenylisoxazol-4-yl)-2-oxoethoxy)phenyl)propanoic acid]
7 | 87 | ≤ 1 |  | O=C(O)CCc1cc(F)c(OCc2ncsc2-c2ccccc2)c(F)c1 [Example 28, 3-(3,5-difluoro-4-((5-phenylthiazol-4-yl)methoxy)phenyl)propanoic acid]
8 | 85 |  | 1 to 10 | O=C(O)CSc1ccc(OCc2snnc2-c2ccccc2)cc1 [Example 29, 2-(4-((4-phenyl-1,2,3-thiadiazol-5-yl)methoxy)phenylthio)acetic acid]
9 | 80 |  | 1 to 10 | Cc1nc(-c2ccccc2)c(COc2c(F)cc(CCC(=O)O)cc2F)s1 [Example 30]
10 | 85 | ≤ 1 |  | O=C(O)CCc1cc(F)c(OCc2snnc2-c2ccc(F)cc2)c(F)c1 [Example 31, 3-(3,5-difluoro-4-((4-(4-fluorophenyl)-1,2,3-thiadiazol-5-yl)methoxy)phenyl)propanoic acid]
11 | 85 | ≤ 1 |  | O=C(O)CCc1cc(F)c(OCc2snnc2-c2cccc(Cl)c2)c(F)c1 [Example 32, 3-(4-((4-(3-chlorophenyl)-1,2,3-thiadiazol-5-yl)methoxy)-3,5-difluorophenyl)propanoic acid]
12 | 80 | ≤ 1 |  | Cc1nc(-c2ccccc2)c(COc2c(F)cc(C3CC3C(=O)O)cc2F)s1 (stereo not drawn) [Example 33, 2-(3,5-difluoro-4-((2-methyl-4-phenylthiazol-5-yl)methoxy)phenyl)cyclopropane carboxylic acid]
13 | 74 |  | 1 to 10 | Cc1onc(-c2ccccc2)c1COc1c(F)cc(COCC(=O)O)cc1F [Example 34, 2-(3,5-difluoro-4-((5-methyl-3-phenylisoxazol-4-yl)methoxy)benzyloxy)acetic acid]
14 | 86 | ≤ 1 |  | Cc1cc(COc2c(F)cc(COCC(=O)O)cc2F)n(-c2ccc(Cl)cc2)n1 [Example 35, 2-(4-((1-(4-chlorophenyl)-3-methyl-1H-pyrazol-5-yl)methoxy)-3,5-difluorobenzyloxy)acetic acid]
15 | 94 | ≤ 1 |  | Cc1onc(-c2ccccc2)c1COc1c(F)cc(CC(C)C(=O)O)cc1F (stereo not drawn) [Example 37, 3-(3,5-difluoro-4-((5-methyl-3-phenylisoxazol-4-yl)methoxy)phenyl)-2-methylpropanoic acid]
16 | 100 |  | 1 to 10 | Cc1cc(COc2c(F)cc(CC(C)(C)C(=O)O)cc2F)n(-c2ccc(Cl)cc2)n1 [Example 38, 3-(4-((1-(4-chlorophenyl)-3-methyl-1H-pyrazol-5-yl)methoxy)-3,5-difluorophenyl)-2,2-dimethylpropanoic acid]
17 | 100 | ≤ 1 |  | Cc1cc(COc2ccc3c(c2)CCC(CC(=O)O)C3)n(-c2ccc(Cl)cc2)n1 (stereo not drawn) [Example 39, 2-(6-((1-(4-chlorophenyl)-3-methyl-1H-pyrazol-5-yl)methoxy)-1,2,3,4-tetrahydronaphthalen-2-yl)acetic acid]
18 | 100 | ≤ 1 |  | Cc1onc(-c2ccccc2)c1COc1ccc2c(c1)CCC(CC(=O)O)C2 (stereo not drawn) [Example 40, 2-(6-((5-methyl-3-phenylisoxazol-4-yl)methoxy)-1,2,3,4-tetrahydronaphthalen-2-yl)acetic acid]
19 | 50 | ≤ 1 |  | Cc1cc(COc2c(F)cc(CCC(=O)O)cc2F)n(C(C)(C)C)n1 [Example 41, 3-(4-((1-tert-butyl-3-methyl-1H-pyrazol-5-yl)methoxy)-3,5-difluorophenyl)propanoic acid]
20 | 61 | ≤ 1 |  | Cc1cc(COc2ccc(CCCC(=O)O)cc2)n(-c2ccccc2)n1 [Example 45, 4-(4-((3-methyl-1-phenyl-1H-pyrazol-5-yl)methoxy)phenyl)butanoic acid]
21 | 62 | ≤ 1 |  | Cc1cc(COc2c(F)cc(CCC(=O)O)cc2F)n(-c2ccccc2)n1 [Example 46, 3-(3,5-difluoro-4-((3-methyl-1-phenyl-1H-pyrazol-5-yl)methoxy)phenyl)propanoic acid]
22 | 71 | ≤ 1 |  | Cc1cc(COc2c(F)cc(CCC(=O)O)cc2F)n(-c2ccc(F)cc2)n1 [Example 47, 3-(3,5-difluoro-4-((1-(4-fluorophenyl)-3-methyl-1H-pyrazol-5-yl)methoxy)phenyl)propanoic acid]
23 | 73 | ≤ 1 |  | O=C(O)CCc1cc(F)c(OCc2ccnn2-c2ccccc2)c(F)c1 [Example 48, 3-(3,5-difluoro-4-((1-phenyl-1H-pyrazol-5-yl)methoxy)phenyl)propanoic acid]
24 | 71 | ≤ 1 |  | COc1ccc(-n2nc(C)cc2COc2c(F)cc(CCC(=O)O)cc2F)cc1 [Example 49, 3-(3,5-difluoro-4-((1-(4-methoxyphenyl)-3-methyl-1H-pyrazol-5-yl)methoxy)phenyl)propanoic acid]
25 | 85 | ≤ 1 |  | Cc1cc(COc2c(F)cc(CCC(=O)O)cc2F)n(-c2ccc(Cl)cc2)n1 [Example 50, 3-(4-((1-(4-chlorophenyl)-3-methyl-1H-pyrazol-5-yl)methoxy)-3,5-difluorophenyl)propanoic acid]
26 | 81 | ≤ 1 |  | Cc1cnn(-c2ccc(F)cc2)c1COc1c(F)cc(CCC(=O)O)cc1F [Example 51, 3-(3,5-difluoro-4-((1-(4-fluorophenyl)-4-methyl-1H-pyrazol-5-yl)methoxy)phenyl)propanoic acid]
27 | 96 | ≤ 1 |  | O=C(O)C(F)(F)Cc1cc(F)c(OCc2snnc2-c2ccc(Cl)cc2)c(F)c1 [Example 52, 3-(4-((4-(4-chlorophenyl)-1,2,3-thiadiazol-5-yl)methoxy)-3,5-difluorophenyl)-2,2-difluoropropanoic acid]
